Laboratory results as given in patent US10537650B2, “Molecular probes for multimodality imaging and tracking of stem cells” (University of Massachusetts, priority 2012, dated 2020).

Key:
Assay type in all cases: in vivo, mouse
[1] = SPECT/CT, whole body count and optical imaging of ^111In-MTTI-157 labeled TC1 mES cells in NU/NU mice; settings: for distribution of radioactivity (SPECT/CT): NU/NU mice
Procedure: All animal experiments were approved by the Institutional Animal Care and Use Committee of the university. Male NU/NU mice from Charles River Laboratories International, Inc. (Wilmington, Mass.), about 8 week-old, were used here, and fed a white chow (AIN-93G Purified Diet, Harlan, Madison, Wis.) and water, and housed under standard conditions. TC1 wild type mES cells were labeled with ^111In-MTTI-157 at the dye concentration of 20 μM with about 50 μCi/ml per labeling mix according to the method described before. Then about 4-5 μCi of ^111In-MTTI-157 labeled cells in 0.1 ml PBS (5×10^6 per mouse) was injected into NU/NU mice by tail vein or delivered subcutaneously on the left shoulder. The mice were followed by SPECT/CT imaging (NanoSPECT/CT, Bioscan, Inc., Washington, D.C.) with scans at 1 h and 19 h for injection subcutaneously, and at 30 min and 18 h for injection by tail vein.
The whole body radioactivity was measured through day 9 after injection by placing the mouse in a dose calibrator (Capintec).
(§1) The SPECT image parameters were 1.0 mm/pixel, 256×256 frame size and 60 sec per projection with 24 projections. Acquisition time was approximately 30 min. During imaging, the animal was anesthetized with 1-2% isoflurane in 1.5 liters/min oxygen. A CT scan was acquired prior to the SPECT scan and was performed at standard resolution, using a 45 kVp voltage and 500 milliseconds exposure time. The CT and SPECT reconstruction was performed using InVivoScope 1.43 software (Bioscan, Washington, D.C.).
Optical images (Pearl Imager, LiCor Biosciences, Lincoln, Nebr.) were acquired on day 0 and at intervals through day 28. After imaging, the lungs, liver, spleen and teratoma were removed, imaged and then imbedded in OCT in preparation for frozen section fluorescence microscopy. Slides were counter stained with the general membrane stain D275 (Invitrogen, Em: 484 nm, Ex: 501 nm). Slides were viewed in an Olympus IX 70 Inverted Light Microscope (Olympus America, Inc., NY) using filters for FITC (for D275) and Cy5 (for MTTI-157). […]

[2] = SPECT/CT, whole body count and optical imaging of ^111In-MTTI-157 labeled BL/6 mES cells in NU/NU mice
Procedure: BL/6 wild type mouse embryonic stem cells (mES) were labeled with ^111In-MTTI-157 at the concentration of 12 μM and about 250 μCi/ml according to the method described before. The labeled cells (5 in 0.1 ml PBS (5×10^6 per mouse) were injected into NU/NU mice by tail vein or subcutaneously on the left shoulder. SPECT/CT imaging was done at 30 min, 21 h and day 4 after injection subcutaneously, and at 1 h, 22 h and day 4 when injected by tail vein. Optical imaging was performed through day 11 for the subcutaneous delivery of cells. The whole body radioactivity was measured through day 7 by placing the animal in a dose calibrator.
The lungs, liver, and spleen were removed from the mouse injected by tail vein when sacrificed on day 19, and the teratoma was removed from mouse injected subcutaneously on the left shoulder when sacrificed on day 15. Excised organs and teratoma were imaged on the Li-Cor Biosciences Pearl Imager, and then set in OCT for frozen sections. The frozen sections were stained with the general membrane fluorescent stain D275 (Invitrogen, Em: 484 nm, Ex: 501 nm) and detected on an Olympus IX 70 Inverted Light Microscope (Olympus America, Inc., NY) using a FITC filter for D275 and a Cy5 filter for MTTI-157. D275 is a cell membrane stain and was used here to stain the field of view. The frozen sections were also stained with hematoxylin-eosin (H&E) for standard microscopy.

[3] = SPECT/CT, whole body activity and optical imaging of ^111In-MTTI-157 labeled LS174T cells in SKH-1 mice
Procedure: ^111In-MTTI-157 labeled LS174T cells were administered to mice to follow their fate and that of the labels they carried. All animal experiments were approved by the Institutional Animal Care and Use Committee of the university. Male SKH-1 mice about 8 week-old (Charles River Laboratories, Inc., Wilmington, Mass.) were housed under standard conditions and fed white chow (AIN-93G Purified Diet, Harlan, Madison, Wis.). LS174T cells were prepared labeled with ^111In-MTTI-157 as above, and about 5×10^6 cells with 10-12 μCi was injected by tail vein per mouse.
as §1, with “The mice were followed by SPECT/CT imaging (NanoSPECT/CT, Bioscan, Inc., Washington, D.C.) with scans at 30 min, 1 h, 24 h, 72 h, 120 h and 168 h following injection. The SPECT” for “The SPECT”, “in 1.5 L/min oxygen. A” for “in 1.5 liters/min oxygen. A”
Optical images (Pearl Imager, LiCor Biosciences, Lincoln, Nebr.) were acquired on day 0 and at intervals through day 28. To facilitate detection of signal at depth, such as in the lungs, some animals were killed, the chest and abdomen opened to expose internal organs, and then imaged. Untreated mice served as control. After imaging, the lungs, liver and spleen were removed, imaged and then imbedded in OCT in preparation for frozen section fluorescence microscopy. Slides were counter stained with the general membrane stain D275 (Invitrogen). Slides were viewed in an Olympus IX 70 Inverted Light Microscope (Olympus America, Inc., NY) using filters for FITC (for D275) and Cy5 (for MTTI-157).

whole body ^111In retention (decay corrected) ([3]; SKH-1 mice, labeled LS174T cells by tail vein): retention out thru Day 14 | loss of whole body activity (half-life corrected) ([3]; from day 0 to day 10, dose calibrator, SKH-1 mice): about 23% | label stability in vivo ([3]; monitoring of cells out through 28 days in vivo): no evidence of label instability
Compound: CCCCCCCCCCCCCCCCCCCCCCN1C(=CC=CC=CC2=[N+](CCCCCCCCCCCCCCCCCCCCCC)c3ccc(CNC(=O)CN4CCN(CC(=O)[O-])CCN(CC(=O)[O-])CCN(CC(=O)[O-])CC4)cc3C2(C)C)C(C)(C)c2ccccc21.[111In+3].[I-] [^111In-MTTI-157]
distribution of radioactivity (SPECT/CT) ([1]; labeled TC1 mES cells injected by tail vein): accumulated in the lungs at 1 h after injection and then distributed to liver and spleen by 19 h | distribution of radioactivity (SPECT/CT) ([1]; labeled TC1 mES cells injected subcutaneously on the left shoulder): retained in the shoulder and did not distribution to other tissue through 18 h | whole body radioactivity corrected for decay ([1]; tail vein and subcutaneous injection of labeled TC1 mES cells, dose calibrator): retained in the body through day 9 | distribution of radioactivity (SPECT/CT) ([2]; labeled BL/6 mES cells by tail vein, NU/NU mice): accumulated in the lungs by 1 h following injection which then distributed to the liver and spleen by 22 h | distribution of radioactivity (SPECT/CT) ([2]; labeled BL/6 mES cells subcutaneously on left shoulder, through day 4): retained in the shoulder without distribution to other tissue | whole body radioactivity ([2]; labeled BL/6 mES cells, measured through day 7 in dose calibrator): unchanged from 2 h to 21 h after injection, but then decreases slightly at 91 h and remain at this level through 165 h | distribution of radioactivity (SPECT/CT) ([3]; labeled LS174T cells by tail vein, SKH-1 mice, earliest scan 30 min and 1 h, then within a day): restricted to the lungs and then seen to redistribute within a day to the liver and spleen
